From US20130236619A1, “ANTI-MICROBIAL FOOD PROCESSING COMPOSITIONS INCLUDING CERAGENIN COMPOUNDS AND METHODS OF USE” (Brigham Young University, priority 2012, published 2013)

Columns and labels:
[1] = tested on: Salmonella bacteria; assay: Example 2: Salmonella inoculated poultry carcasses dipped in wash composition; settings: peracetic acid wash composition
Procedure: (§1) Example 2 was performed to determine the effectiveness of an anti-microbial wash composition including a ceragenin compound in controlling growth of Salmonella bacteria by fighting off a Salmonella inoculation. Example 3 was similarly performed to determine the effectiveness of the wash composition in controlling growth of Campylobacter bacteria by fighting off a Campylobacter inoculation. Examples 2 and 3 simulate the effectiveness of the present anti-microbial wash compositions to kill Salmonella and Campylobacter on a poultry carcass where the poultry carcass has become contaminated with Salmonella bacteria or Campylobacter bacteria.
(§2) A total of 15 poultry carcasses (chicken carcasses) were sampled for these tests. The 15 poultry carcasses were divided into five groups of three each. Three carcasses were left untreated to serve as a negative control in order to observe natural levels of bacteria present on the carcass. The remaining 12 carcasses were then inoculated with 1 mL of Salmonella and 1 mL of Campylobacter. The carcasses were allowed to dry for 20 minutes in order for the bacteria to adhere to the surface of the poultry carcasses. One group of three of the inoculated poultry carcasses, designated the positive control, were then rinsed with a wash composition including no anti-microbial agent to determine the level of bacteria after inoculation. […]

[2] = tested on: Campylobacter bacteria; assay: Example 3: Campylobacter inoculated poultry carcasses dipped in wash composition; settings: peracetic acid wash composition
Procedure: as §1, §2

[3] = tested on: spoilage microorganisms; assay: Example 1: shelf-life of poultry carcasses dipped in wash composition; settings: wash composition including 100 ppm peracetic acid
Procedure: A study was performed to determine the effectiveness of an anti-microbial rinse composition including relatively low concentrations of a ceragenin compound in controlling growth of bacteria and extending shelf-life of a poultry food product. Three different wash compositions were prepared. Aqueous wash composition 1 (the control) included no ceragenin compound or other anti-microbial agent. Aqueous wash composition 1 was simply tap water. […] The ceragenin compound employed was CSA-44. Poultry carcasses (chicken carcasses) were dipped (e.g., immersed) for 30 seconds into the given wash composition and mechanically agitated to mimic the action of a finishing chiller used in commercial processing. After the 30 second application time, the carcasses were immediately vacuum packaged and stored in a refrigerator at 4° C. Three carcasses from each treatment were tested every third day beginning at day 0 and ending at day 21 to monitor their associated levels of microorganisms.
Poultry is considered to be spoiled when it reaches a level of 10^6 Colony Forming Units (“CFUs”)/ml of spoilage microorganisms in the rinsate. The control, i.e., poultry carcasses treated with wash composition 1, reached this limit on day 12. […] By day 18, the poultry carcasses treated with wash composition 2 had exceeded this limit with a value of about 10^6.5 CFUs/ml. […]

SMILES: CC(=O)OO [peracetic acid]
- reduction of the presence of Salmonella bacteria [1]: effective in reducing
- reduction of the presence of Campylobacter bacteria [2]: effective in reducing
- extension of shelf-life relative to a control wash composition [3]: no extension of shelf-life
